Data set [1] relates to TLR9-activated pDCs. As to the kind of experiment: IFNA gene expression (Q-PCR) in pDCs activated with TLR9 agonist CpG-C274. It is filed as cell-based, human. The following applies: for IFNA expression in TLR9-activated pDCs under ER stress plus IRE1α inhibitor: TM or TG with MKC8866 at 1 μM or 4μ8c at 10 μM for 3 h, FIGS. 1F, 1G, 6C, 6D; for IFNA (IFN-I) expression in TLR9-activated pDCs: UK5099 at 10, 20, and 40 μM or CB839 at 0.5 μM for 1 h, FIGS. 11B-11C.

The test system of data set [2] is TLR9-activated pDCs. The experiment in a line: IFN-I gene and interferon-stimulated gene (ISG) expression in TLR9-activated pDCs (RNA-seq, Q-PCR). In kind it is cell-based, human. The following applies: CPI-613 at 100 & 200 μM for 1 h, then TLR9 agonist for 5 h; FIGS. 8A-8E.
The test system of data set [3] is IRE1α-XBP1 signaling in pDCs. The experiment in a line: XBP1 splicing (Q-PCR) in pDCs. In kind it is cell-based, human.
Data set [4] has as its system pDCs of SSc patients. The experiment in a line: IFN-inducible gene expression in pDCs of patients with SSc. It is filed as cell-based, human. The following applies: CPI-613 at 200 μM for 13 h; FIG. 4G.
The subject of data set [5] is pDCs. As to the kind of experiment: Cell viability of pDCs by flow cytometry (DAPI). The following applies: CPI-613 at 100 & 200 μM for 1 h, then TLR9 agonist for 5 h; FIG. 8F.
Protocol: (§2) After 6-8 h of cell culture, pDCs were washed in PBS and then resuspending in FACS buffer and stained with DAPI. Cells were acquired by a fluorescence activated cell sorter (FACS) and analysis was performed using FlowJo analysis software. The gating strategy for viable cells involved progressively measuring total cells without uptake of DAPI.
(§3) Cell viability using Flow cytometry. After 6 h of cell culture, pDCs were washed in PBS and then resuspended in FACS buffer and stained with DAPI. Cells were acquired by a fluorescence activated cell sorter (FACS) and analysis was performed using FlowJo analysis software. The gating strategy for viable cells involved progressively measuring total cells without uptake of DAPI.
The test system of data set [6] is pDCs. The experiment in a line: Serine biosynthesis gene expression (PHGDH, PSAT1, PSPH; Q-PCR) in pDCs. In kind it is cell-based, human.
Data set [7] deals with pDCs. The experiment in a line: Intracellular ATP in pDCs (ATP determination kit). The following applies: then TLR9 agonist. It is filed as cell-based, human. Here is the method:
(§1) Supernatants were removed, and cells were deproteinated in 0.5 ml of 0.5M MPA on ice for 5 min, followed by centrifugation at 10000×g for 5 min at 4° C. The deproteinated samples were neutralized with 25 μl of potassium carbonate, and then centrifugation at 10000×g for 5 min at 4° C. The supernatant was removed and deproteinated samples were used for pyruvate assay. For ATP determination, ATP determination kit (Sigma: A22066) was used in pDCs extracts as per the manufacture protocol.

Data set [8] has as its system pDCs of SSc patients. As to the kind of experiment: Secreted CXCL4 (ELISA) from pDCs of patients with SSc. In kind it is cell-based, human. The following applies: CPI-613 at 200 μM for 13 h, FIG. 4H.
For data set [9], the system named is TLR9-activated pDCs. As to the kind of experiment: Secreted IFN-α (ELISA) from pDCs activated with TLR9 agonist. It is filed as cell-based, human.
Data set [10] relates to pDCs. The experiment in a line: Intracellular pyruvate in pDCs (pyruvate detection kit). In kind it is cell-based, human. The following applies: then TLR9 agonist for 2.5 h, FIGS. 2K, 2L. Here is the method: as §1, with “Intracellular pyruvate were determined in pDCs by pyruvate detection kit (Cayman chemicals: 700470) as per the manufacture protocol. pDC cultured in RPMI medium were washed in 1 ml of PBS and centrifuged at 10000×g for 5 min at 4° C. Supernatants” for “Supernatants”

The subject of data set [11] is pDCs. The experiment in a line: IFN-α expression in pDCs cultured with ER stress inducers alone. The following applies: TM at 3 μg/ml or TG at 0.5 μM, no TLR agonist; FIGS. 1A, 1B. In kind it is cell-based, human.
Data set [12] deals with pDCs.
Protocol: as §2, §3
In data set [13] the test system is pDCs. The experiment in a line: UPR and ER stress gene expression in pDCs (RNA-seq, Q-PCR). It is filed as cell-based, human.
In data set [14] the test system is TLR9-activated pDCs. The experiment in a line: IL-6 gene expression (Q-PCR) in TLR9-activated pDCs. The following applies: TM or TG for 3 h, then TLR9 agonist; quantified at 5 h; FIG. 5F. It is filed as cell-based, human.
The mark [15] stands for this setting: then CpG-C274 0.075 μM, 5 h, normalized to TLR9 agonist.

“Also recorded” adds a separate entry of the source.

`Cc1cc(=O)oc2c(C=O)c(O)ccc12` [4μ8c]: in the data set on TLR9-activated pDCs [1] (then TLR9 agonist, 5 h), the “IFNA expression in TLR9-activated pDCs under ER stress plus IRE1α inhibitor” value is “prevented ER stress-driven inhibition of IFN-α”.
Consider `O=C(Cc1cccc(OC(F)(F)F)c1)Nc1ccc(CCCCc2nnc(NC(=O)Cc3ccccn3)s2)nn1` [CB839], for which the “IFNA (IFN-I) expression in TLR9-activated pDCs” value in the data set with TLR9-activated pDCs [1] (setting [15]) is recorded as “Inhibit”.
As to `O=C(O)CCCCC(CCSCc1ccccc1)SCc1ccccc1` (stereo not drawn) [CPI-613, 6,8-bis-benzylthio-octanoic acid], the “expression of ISGs such as GBP1, IRF7, ISG54, MxB, CXCL10” value in the data set on TLR9-activated pDCs [2] was “inhibited”. In addition, in data set [3] (CPI-613 at 100 & 200 μM for 1 h, then TLR9 agonist for 5 h, FIG. 8G), the “effect on XBP1 splicing” value is “no effect”. Also, the “IFNA expression in TLR9-activated pDCs” value with TLR9-activated pDCs [1] (CPI-613 at 100 μM & 200 μM for 1 h, then TLR9 agonist, 5 h, FIG. 3J) is “inhibited; also recorded: reduces”. Also, the “expression of IFN-inducible genes (GBP1, IRF7, ISG54, MxB, OAS2) by pDCs of SSc patients” value in the data set with pDCs of SSc patients [4] is “drastically reduced”. The “effect on cell viability” value in the data set with pDCs [5] is reported as “no effect”. Moreover, the “effect on expression of PHGDH” value in the data set on pDCs [6] (CPI-613 at 100 & 200 μM for 1 h, then TLR9 agonist for 5 h, FIG. 8H) is “no effect”. Also, in the data set on pDCs [7] (CPI-613 at 100 μM & 200 μM for 1 h, 4 h, normalized to medium, FIG. 3L), the “intracellular ATP levels in TLR9-activated pDCs” value is listed as “reduced”. The “secretion of CXCL4” value in the data set with pDCs of SSc patients [8] is reported as “no effect”. Besides, the “secretion of IFN-α by TLR9-activated pDCs” value with TLR9-activated pDCs [9] (CPI-613 at 100 μM & 200 μM for 1 h, then TLR9 agonist, 13 h, FIG. 3K) is “inhibited”. Also, the “induction of IFN-α by TLR9-stimulated pDCs in the presence of CXCL4” value with TLR9-activated pDCs [9] (CPI-613 at 200 μM for 1 h, then TLR9 agonist with CXCL4, 13 h ELISA, FIG. 4F) is given as “abrogated”.
`Cc1ccc(OCCN(C)C(=O)Cn2cc(NC(=O)CCOc3ccccc3)cn2)cc1` [IXA4]: the XBP1 splicing entry in [3] (IXA4 at 10 μM & 30 μM for 6 h, FIG. 1H) is “enhanced”. The “IFNA expression in TLR9-activated pDCs” value with TLR9-activated pDCs [1] (IXA4 at 10 μM & 30 μM for 1 h, then TLR9 agonist, 5 h, FIG. 1I) was “abrogated”. Besides, in the data set with pDCs [6] (IXA4 at 30 μM for 6 h, normalized to medium, FIG. 2F), the PHGDH gene expression entry is recorded as “conversely induced”.
As to `N[C@@H](CO)C(=O)O` [L-serine], the “IFN-α secretion by TLR9-activated pDCs” value in the data set on TLR9-activated pDCs [9] (L-serine 1 mg/ml for 1 h, then TLR9 agonist, 13 h, FIG. 2J) is reported as “unaltered”.
For the molecule `COc1cc2c(C)c(CC(=O)N3CCOCC3)c(=O)oc2c(C=O)c1O` [MKC8866], the “IFNA expression in TLR9-activated pDCs under ER stress plus IRE1α inhibitor” value in the data set on TLR9-activated pDCs [1] (then TLR9 agonist, 5 h) is “prevented ER stress-driven inhibition of IFN-α”.
Take `Cc1cc(C)nc(NC(=S)N2CCN(Cc3ccc(C(F)(F)F)cc3)CC2)c1` [NCT-503]: in the data set on TLR9-activated pDCs [1] (TM or TG with NCT-503 at 2 μM for 3 h, then TLR9 agonist, 5 h, FIGS. 2H, 2I), the “IFNA expression by TLR9-activated pDCs facing ER stress plus PHGDH inhibitor” value is reported as “restored”. In addition, in the data set with pDCs [10] (TM or TG with NCT-503 at 2 μM for 3 h), the “intracellular pyruvate levels in ER stressed-pDCs plus PHGDH inhibitor” value is given as “restored”. For the same molecule, in the data set on pDCs [7] (tunicamycin with NCT-503 at 2 μM for 3 h, 2.5 h, FIG. 3I), the “intracellular ATP levels under ER stress plus PHGDH inhibitor” value is recorded as “restored”.
`N#C/C(=C\c1cn(-c2ccccc2)c2ccccc12)C(=O)O` [UK5099]: in the data set with TLR9-activated pDCs [1] (setting [15]), the “IFNA (IFN-I) expression in TLR9-activated pDCs” value is on record as “Inhibit”.
For the molecule `CC(=O)C(=O)[O-].[Na+]` [pyruvate, sodium pyruvate], in the data set with TLR9-activated pDCs [1] (TM or TG with sodium pyruvate 10 mM or α-KG 10 mM for 3 h, then TLR9 agonist, 5 h, FIGS. 3A-3D), the “IFNA expression by TLR9-activated pDCs under ER stress with metabolite supplementation” value is reported as “sufficient to restore”. Also, in the data set with pDCs [7] (TM or TG with pyruvate 10 mM or α-KG 10 mM for 3 h, 2.5 h, FIGS. 3E-3H), the “intracellular ATP levels under ER stress with metabolite supplementation” value is “restored”.
Take `C/C=C(/C)C(=O)O[C@H]1C(C)=C2[C@H]([C@@H]1OC(=O)CCCCCCC)[C@@](C)(OC(C)=O)C[C@H](OC(=O)CCC)[C@@]1(O)[C@H]2OC(=O)[C@@]1(C)O` [thapsigargin, Thapsigargin]: in the data set with TLR9-activated pDCs [1] (TM 3 μg/ml or TG 0.5 μM for 3 h, then CpG-C274 0.075 μM, quantified at 5 h, normalized to TLR9 agonist, FIG. 1A), the “expression levels of IFNA in response to TLR9” value is “drastically inhibited”. In the data set on pDCs [11], the “capacity to express IFN-α with ER stress inducer alone” value is reported as “not impacted”. Also, the effect on viability entry in the data set on pDCs [12] is “negligible effects”. In addition, in the data set with pDCs [13] (pDCs from HDs cultured 8 h, TM at 3 μg/ml or TG at 0.5 μM vs media alone, FIGS. 5A-5D), the “induction of the unfolded protein response (UPR), RNA-seq” value is given as “strong induction”. The PHGDH gene expression result in the data set on pDCs [6] (TM or TG for 3 h, followed by TLR9 agonist for 5 h, FIG. 2D) is listed as “markedly induced”. For the same molecule, the “serine biosynthesis gene expression (PHGDH, PSAT1, PSPH), irrespective of TLR9 signaling” value with pDCs [6] (TM or TG for 3 h, followed by TLR9 agonist for 5 h, FIGS. 2D, 7C, 7D) is listed as “induction”. In the data set on pDCs [10] (TM or TG for 3 h), the “intracellular pyruvate levels in ER stressed-pDCs” value is reported as “significantly reduced”. For the same molecule, the “intracellular ATP levels under ER stress” value in the data set on pDCs [7] (TM or TG for 3 h, 2.5 h, normalized to medium, FIGS. 3E-3H) is listed as “reduced”. Moreover, the “effect on IL-6 expression” value in the data set with TLR9-activated pDCs [14] is on record as “negligible effects”.

B1: CXCL4: chemokine CXCL4 (Sigma: SRP3142) added to pDC culture at 3 μg/ml (protein, UniProt P02776 32-101, looked up)
Platelet factor 4: EAEEDGDLQCLCVKTTSQVRPRHITSLEVIKAGPHCPTAQLIATLKNGRKICLDLQAPLYKKIIKKLLES
With B1, the “IFN-α expression by TLR9-activated pDCs undergoing ER stress” value in the data set with TLR9-activated pDCs [1] (tunicamycin 3 h, then TLR9 agonist with CXCL4 3 μg/ml, 5 h, FIG. 10A) was “restore”. Further, in the data set on pDCs [13] (tunicamycin 3 h, then TLR9 agonist with CXCL4 3 μg/ml, 5 h, FIG. 4D), the “expression of UPR genes (XBP1, spliced XBP1, HSPA5, DNAJB9) facing ER stress” value is “significant decrease”. Besides, in the data set on pDCs [6] (tunicamycin 3 h, then TLR9 agonist with CXCL4 3 μg/ml, 5 h, FIG. 4E), the “PHGDH upregulation under ER stress” value is on record as “dampened”. The “IFN-α secretion by TLR9-activated pDCs undergoing ER stress” value with TLR9-activated pDCs [9] (tunicamycin 3 h, then TLR9 agonist with CXCL4 3 μg/ml, 13 h, FIG. 4C) is reported as “restore”.

These data come from US20240033277A1, “METHODS FOR TREATING AUTOIMMUNE DISEASES” (NEW YORK SOCIETY FOR THE RELIEF OF THE RUPTURED AND …, priority 2020, published 2024).
